Assay [1] concerns Staphylococcus aureus. In words: Antimicrobial activity against Staphylococcus aureus CIP 4.83 after 18 to 24 hrs by broth microdilution method. The assay is classed as functional. Background: In broth dilution the organism is exposed to a series of concentrations in liquid medium.
For assay [2], the system named is Enterococcus hirae. In words: Antimicrobial activity against Enterococcus hirae CIP 5855 after 18 to 24 hrs by broth microdilution method. The class given is functional.
In assay [3] the test system is Pseudomonas aeruginosa. In words: Antimicrobial activity against Pseudomonas aeruginosa CIP 82.118 after 18 to 24 hrs by broth microdilution method. The assay is classed as functional.
Assay [4] concerns Escherichia coli. In words: Antimicrobial activity against Escherichia coli CIP 53126 after 18 to 24 hrs by broth microdilution method. The assay is classed as functional.
Assay [5] relates to Mycobacterium tuberculosis. In words: Antimycobacterial activity against Mycobacterium tuberculosis H37Rv assessed as growth inhibition at 0.1 uM after 6 days by MTT colorimetric microassay. The assay is classed as functional, organism-based.
Assay [6] has as its system Staphylococcus aureus. In words: Antimicrobial activity against methicillin-resistant Staphylococcus aureus ATCC 33591 after 18 to 24 hrs by broth microdilution method. The class given is functional.
The subject of assay [7] is Staphylococcus aureus. In words: Antimicrobial activity against methicillin-resistant Staphylococcus aureus ATCC 33592 after 18 to 24 hrs by broth microdilution method. The class given is functional.
The subject of assay [8] is Staphylococcus aureus. In words: Antimicrobial activity against multidrug-resistant Staphylococcus aureus isolate 1 after 18 to 24 hrs by broth microdilution method. The assay is classed as functional.
Assay [9] concerns Staphylococcus aureus. In words: Antimicrobial activity against multidrug-resistant Staphylococcus aureus isolate 2 after 18 to 24 hrs by broth microdilution method. The class given is functional.

SMILES strings stand for the structures. Values after ≈ are worked out from the molar mass of the structure shown. Active and inactive are the calls of the source. A value given as a limit tells only on which side of the number the result lay.

8 compounds from ChEMBL document CHEMBL1914411, “Synthesis of lipophilic dimeric C-7/C-7-linked ciprofloxacin and C-6/C-6-linked levofloxacin derivatives. Versatile in vitro biological evaluations of monomeric and dimeric fluoroquinolone derivatives as potential antitumor, antibacterial or antimycobacterial agents” (Eur J Med Chem, 2011) can be followed below.

Broadly, the MBC is the smallest concentration meeting the test's criterion for killing. Read a low MBC as more potent killing. Broadly, the MIC is the smallest concentration in the dilution series that meets the test's criterion for growth inhibition.

As for `CCCCCCCCOC(=O)N1CCN(c2cc3c(cc2F)c(=O)c(C(=O)O)cn3C2CC2)CC1`, the minimum bactericidal concentration (MBC) in assay [1] was found to be 62.5 µM (≈ 30.5 µg/mL); in assay [2], 125 µM (≈ 60.9 µg/mL); in assay [3], 250 µM (≈ 122 µg/mL); in assay [4] it was 500 µM (≈ 244 µg/mL). For the same compound, the MIC in assay [1] turned out to be 7.8 µM (≈ 3.8 µg/mL); in [2] it was 125 µM (≈ 60.9 µg/mL); in assay [3], 125 µM (≈ 60.9 µg/mL); in assay [4], 125 µM (≈ 60.9 µg/mL). Moreover, in [5], the “growth inhibition (GI)” value was “inactive”.
With `CCCCC(=O)N1CCN(c2cc3c(cc2F)c(=O)c(C(=O)O)cn3C2CC2)CC1`, the MBC in [1] is at most 0.48 µM; in [2], 7.8 µM (≈ 3.24 µg/mL); in assay [3], 250 µM (≈ 104 µg/mL); in assay [4] it was 15.6 µM (≈ 6.48 µg/mL); in assay [6], 0.48 µM (≈ 0.199 µg/mL); in [7] it was 0.48 µM (≈ 0.199 µg/mL). Further, the minimum bactericidal concentration (MBC) worked out at 500 µM (≈ 208 µg/mL) in assay [8] and 31.2 µM (≈ 13 µg/mL) in assay [9]. For the same compound, the MIC is at most 0.24 µM in assay [1]; 7.8 µM (≈ 3.24 µg/mL) in [2]; 62.5 µM (≈ 26 µg/mL) in [3]; 7.8 µM (≈ 3.24 µg/mL) in assay [4]; 0.48 µM (≈ 0.199 µg/mL) in assay [6]; 0.24 µM (≈ 0.0997 µg/mL) in assay [7]. Moreover, the MIC in assay [8] turned out to be 62.5 µM (≈ 26 µg/mL); in assay [9], 31.2 µM (≈ 13 µg/mL). Also, the “growth inhibition (GI)” value in assay [5] is “inactive”.
Consider `O=C(CCCCCCCCCCCCCCC(=O)OCN1CCN(c2cc3c(cc2F)c(=O)c(C(=O)O)cn3C2CC2)CC1)OCN1CCN(c2cc3c(cc2F)c(=O)c(C(=O)O)cn3C2CC2)CC1`, for which the MBC was at most 0.97 µM in assay [1]; 62.5 µM (≈ 60.8 µg/mL) in assay [2]; 250 µM (≈ 243 µg/mL) in [3]; 15.6 µM (≈ 15.2 µg/mL) in assay [4]; 15.6 µM (≈ 15.2 µg/mL) in [6]; 1.9 µM (≈ 1.85 µg/mL) in assay [7]. Also, the MBC in assay [8] and in assay [9] was 500 µM (≈ 487 µg/mL) throughout. The MIC was at most 0.97 µM in assay [1]; 31.2 µM (≈ 30.4 µg/mL) in assay [2]; 62.5 µM (≈ 60.8 µg/mL) in assay [3]; 7.8 µM (≈ 7.59 µg/mL) in assay [4]; 7.8 µM (≈ 7.59 µg/mL) in assay [6]; 0.97 µM (≈ 0.944 µg/mL) in assay [7]. The MIC in assay [8] and in assay [9] was 125 µM (≈ 122 µg/mL) throughout. Besides, the “growth inhibition (GI)” value in [5] was “inactive”.
For the compound `O=C(O)c1cn(C2CC2)c2cc(N3CCN(C(=O)CCl)CC3)c(F)cc2c1=O`, the MBC in [1] is at most 0.97 µM; in [2], 3.9 µM (≈ 1.59 µg/mL); in [3] it was 250 µM (≈ 102 µg/mL); in assay [4], at most 0.97 µM. Also, the MIC in assay [1] is at most 0.97 µM; in assay [2], 3.9 µM (≈ 1.59 µg/mL); in assay [3] it was 31.2 µM (≈ 12.7 µg/mL); in assay [4], at most 0.97 µM. Moreover, the “growth inhibition (GI)” value in assay [5] is “inactive”.
As for `O=C(O)c1cn(C2CC2)c2cc(N3CCN(C(=O)Cc4ccccc4)CC3)c(F)cc2c1=O`, the minimal bactericidal concentration (MBC) in [1] was at most 0.24 µM; in assay [2], 7.8 µM (≈ 3.51 µg/mL); in assay [3], 250 µM (≈ 112 µg/mL); in [4], 7.8 µM (≈ 3.51 µg/mL); in [6] it was 0.24 µM (≈ 0.108 µg/mL); in [7] it was 0.24 µM (≈ 0.108 µg/mL). Besides, the MBC amounted to 62.5 µM (≈ 28.1 µg/mL) in assay [8] and 15.6 µM (≈ 7.01 µg/mL) in assay [9]. Also, the MIC in assay [1] is at most 0.12 µM; in assay [2], 3.9 µM (≈ 1.75 µg/mL); in assay [3], 62.5 µM (≈ 28.1 µg/mL); in [4] it was 3.9 µM (≈ 1.75 µg/mL); in assay [6], 0.12 µM (≈ 0.0539 µg/mL); in assay [7], 0.12 µM (≈ 0.0539 µg/mL). For the same compound, the values for the MIC in assay [8] and in [9] were 31.2 µM (≈ 14 µg/mL) and 15.6 µM (≈ 7.01 µg/mL), respectively. Moreover, the “growth inhibition (GI)” value in assay [5] was “inactive”.
As to `CCCCNC(=O)c1cn2c3c(c(N4CCN(C)CC4)c(F)cc3c1=O)OC[C@@H]2C`, the MBC in assay [1] is 125 µM (≈ 52.1 µg/mL); in [2], 250 µM (≈ 104 µg/mL); in assay [3], 250 µM (≈ 104 µg/mL); in [4], 62.5 µM (≈ 26 µg/mL). The MIC was found to be 125 µM (≈ 52.1 µg/mL) in assay [1], 125 µM (≈ 52.1 µg/mL) in assay [2], 62.5 µM (≈ 26 µg/mL) in [3] and 62.5 µM (≈ 26 µg/mL) in [4]. The “growth inhibition (GI)” value in assay [5] was “inactive”.
Turning to `CC(=O)N1CCN(c2cc3c(cc2F)c(=O)c(C(=O)O)cn3C2CC2)CC1`, the MBC worked out at 1.9 µM (≈ 0.709 µg/mL) in assay [1]; 7.8 µM (≈ 2.91 µg/mL) in assay [2]; 31.2 µM (≈ 11.6 µg/mL) in assay [3]; 1.9 µM (≈ 0.709 µg/mL) in assay [4]; 0.97 µM (≈ 0.362 µg/mL) in assay [6]; 0.97 µM (≈ 0.362 µg/mL) in assay [7]. The MBC in assay [8] stood at 500 µM (≈ 187 µg/mL); in assay [9], 62.5 µM (≈ 23.3 µg/mL). Moreover, the MIC in assay [1] was at most 0.48 µM; in assay [2] it was 7.8 µM (≈ 2.91 µg/mL); in [3], 31.2 µM (≈ 11.6 µg/mL); in [4], 1.9 µM (≈ 0.709 µg/mL); in assay [6] it was 0.97 µM (≈ 0.362 µg/mL); in [7], 0.48 µM (≈ 0.179 µg/mL). For the same compound, the MIC in assay [8] came out at 62.5 µM (≈ 23.3 µg/mL); in assay [9], 31.2 µM (≈ 11.6 µg/mL). In [5], the “growth inhibition (GI)” value is “inactive”.
For the compound `CC(=O)OCC(=O)N1CCN(c2cc3c(cc2F)c(=O)c(C(=O)O)cn3C2CC2)CC1`, the MBC was at most 0.97 µM in assay [1]; 15.6 µM (≈ 6.73 µg/mL) in [2]; 250 µM (≈ 108 µg/mL) in assay [3]; 15.6 µM (≈ 6.73 µg/mL) in [4]; 3.9 µM (≈ 1.68 µg/mL) in [6]; 1.9 µM (≈ 0.82 µg/mL) in [7]. Besides, the MBC came to 500 µM (≈ 216 µg/mL) in [8] and 125 µM (≈ 53.9 µg/mL) in [9]. Besides, the minimum inhibitory concentration (MIC) in assay [1] is at most 0.97 µM; in [2], 15.6 µM (≈ 6.73 µg/mL); in assay [3], 62.5 µM (≈ 27 µg/mL); in assay [4] it was 7.8 µM (≈ 3.37 µg/mL); in assay [6] it was 3.9 µM (≈ 1.68 µg/mL); in assay [7], 0.97 µM (≈ 0.418 µg/mL). Besides, the MIC in assay [8] and in [9] was 125 µM (≈ 53.9 µg/mL) each time. Further, in assay [5], the “growth inhibition (GI)” value is “inactive”.
